Laboratory results reported in US11066436B2, “5′-phosphorothiolate mRNA 5′-end (cap) analogs, mRNA comprising the same, method of obtaining and uses thereof” (Uniwersytet Warszawski, priority 2016, dated 2021).
“Also recorded” adds a separate entry of the source.

How the values were obtained:
[1] = target: T1, human DcpS enzyme (hDcpS) (Homo sapiens, UniProt Q96C86); assay: Susceptibility of cap analogs to degradation by DcpS enzyme (RP-HPLC); assay type: biochemical; conditions: for DcpS susceptibility: cap analog 20 μM, hDcpS 100 nM, RP-HPLC; for hydrolysis by hDcpS: tested as substrates of hDcpS, RP HPLC
T1 construct: made in house
T1 sequence (Q96C86 1-337): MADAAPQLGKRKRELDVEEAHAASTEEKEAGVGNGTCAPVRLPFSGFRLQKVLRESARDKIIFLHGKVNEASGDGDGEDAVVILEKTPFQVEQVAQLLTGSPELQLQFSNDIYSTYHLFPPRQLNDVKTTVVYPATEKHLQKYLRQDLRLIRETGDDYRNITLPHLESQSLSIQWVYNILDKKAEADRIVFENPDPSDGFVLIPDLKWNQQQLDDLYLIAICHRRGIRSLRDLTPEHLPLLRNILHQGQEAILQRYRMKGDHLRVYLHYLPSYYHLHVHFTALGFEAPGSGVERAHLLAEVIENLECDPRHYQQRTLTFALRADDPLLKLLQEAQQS
Procedure: Test 1. The Susceptibility Study of Analogs to Degradation by DcpS Enzyme.
The aim of the test was to check if new 5′-thiophosphate cap analogs are hydrolyzed by human DcpS enzyme (hDcpS). Recombinant human protein encoding DcpS enzyme was expressed as described previously (Kowalska, Lewdorowicz et al. 2008). The susceptibility of new analogs to hDcpS hydrolysis is tested in 50 mM Tris-HCl buffer containing 200 mM KCl and 0.5 mM EDTA. Reaction mixture includes the tested cap analog (20 μM) and hDcpS enzyme (100 nM) in 400 μl of buffer. At the appropriate intervals 100 μl sample is collected from the reaction mixture. Sample is incubated at 98° C. for 2.5 min, and then cooled to 0° C. and analyzed on RP-HPLC under conditions described in general informations. In tests also commercially available inhibitor of DcpS was tested, the compound RG3039 (no. 000) (https://www.mda.org/quest/fda-approves-phase-1-clinical-trial-rg3039-sma), GppSG (no. 19), GpppSG (no. 20), as well m^7GpppG (no. 0) and m^7Gpp (no. 00) as controls. Exemplary results obtained are shown on FIG. 5 and Table 5.

[2] = target: T2, hDcpS enzyme (Homo sapiens, UniProt Q96C86); assay: IC50 determination for selected inhibitors of DcpS (fluorescence, m^7GMPF probe); assay type: biochemical; conditions: for IC50: m^7GMPF 60 μM, hDcpS 50 nM, tested compound 0-50 μM
T2 construct: made in house
T2 sequence (Q96C86 1-337): T1 sequence (Q96C86 1-337)
Procedure: Test 2. IC50 Determination for Selected Inhibitors
The buffer in this test and in the test 1 is the same. Ten mixture reactions were prepared at the same time and each of them contained a m^7GMPF (60 μM), hDcpS enzyme (50 nM) and the tested compound in concentration range between 0-50 μM in 200 μl of buffer. After appropriate time, when 30% of substrate were converted into product without inhibitor, the reaction was stopped by mixing with 100 μl of ACN. Samples of 25 μl were taken for analysis, followed by mixing with 90 μl of TBDS-fluorescein solution of concentration 2.5 μM in DMSO and incubated for 60 min. Next, 100 μl of 200 mM HEPES buffer pH=7.0 was added to the samples and the fluorescence was measured as described in general information. Based on the results, dependence of inhibitor concentration vs. fluorescence were plotted and the IC50 values were determined by fitting theoretical curve to data.

SMILES | DcpS susceptibility [1] | hydrolysis by hDcpS [1] | IC50 [2] [nM] | inhibition of hDcpS ([2]; fluorescence method and fluorogenic probe)
C[n+]1cn([C@@H]2O[C@H](COP(=O)(O)OP(=O)(O)OP(=O)([O-])SC[C@H]3O[C@@H](n4cnc5c(=O)[nH]c(N)nc54)C(O)C3O)C(O)C2O)c2nc(N)nc(O)c21 (stereo partly drawn) [compound 22] | hydrolyzable | hydrolyzed | – | –
C[n+]1cn([C@@H]2O[C@H](CSP(=O)([O-])OP(=O)(O)OP(=O)(O)SC[C@H]3O[C@@H](n4cnc5c(=O)[nH]c(N)nc54)C(O)C3O)C(O)C2O)c2nc(N)nc(O)c21 (stereo partly drawn) [compound 32] | resistant/inhibitor | stability in the presence of DcpS enzyme | 330 ± 90 | –
C[n+]1cn([C@@H]2O[C@H](COP(=O)(O)OP(=O)([O-])SC[C@H]3O[C@@H](n4cnc5c(=O)[nH]c(N)nc54)C(O)C3O)C(O)C2O)c2nc(N)nc(O)c21 (stereo in doubt) [compound 21] | hydrolyzable | hydrolyzed | – | –
C[n+]1cn([C@@H]2O[C@H](CSP(=O)([O-])OP(=O)(O)OC[C@H]3O[C@@H](n4cnc5c(=O)[nH]c(N)nc54)C(O)C3O)C(O)C2O)c2nc(N)nc(O)c21 (stereo in doubt) [compound 23] | resistant/inhibitor | stability in the presence of DcpS enzyme | 2810 ± 510 | –
Nc1nc2c(ncn2[C@@H]2O[C@H](COP(=O)(O)OP(=O)(O)SC[C@H]3O[C@@H](n4cnc5c(=O)[nH]c(N)nc54)[C@H](O)[C@@H]3O)[C@@H](O)[C@H]2O)c(=O)[nH]1 [compound 19] | hydrolyzable | – | > 100000 | –
COC1C(O)[C@@H](COP(=O)(O)OP(=O)(O)OP(=O)([O-])SC[C@H]2O[C@@H](n3cnc4c(=O)[nH]c(N)nc43)C(O)C2O)O[C@H]1n1c[n+](C)c2c(O)nc(N)nc21 (stereo partly drawn) [compound 38] | hydrolyzable | hydrolyzed | 72000 ± 17000 | –
C[n+]1cn([C@@H]2O[C@H](CSP(=O)(O)OP(=O)([S-])OP(=O)(O)OC[C@H]3O[C@@H](n4cnc5c(=O)[nH]c(N)nc54)C(O)C3O)C(O)C2O)c2nc(N)nc(O)c21 (stereo partly drawn) [compound 31] | resistant/inhibitor | stability in the presence of DcpS enzyme | 170 ± 20 | –
C[n+]1cn([C@@H]2O[C@H](CSP(=O)([O-])OP(=O)(O)OP(=O)(O)OC[C@H]3O[C@@H](n4cnc5c(=O)[nH]c(N)nc54)C(O)C3O)C(O)C2O)c2nc(N)nc(O)c21 (stereo partly drawn) [compound 24] | resistant/inhibitor | resistant; also recorded: stability in the presence of DcpS enzyme | 840 ± 70 | –
C[n+]1cn([C@@H]2O[C@H](COP(=O)(O)CP(=O)(O)OP(=O)([O-])SC[C@H]3O[C@@H](n4cnc5c(=O)[nH]c(N)nc54)C(O)C3O)C(O)C2O)c2nc(N)nc(O)c21 (stereo partly drawn) [compound 37] | resistant/inhibitor | resistant to hydrolysis; also recorded: stability in the presence of DcpS enzyme | 5670 ± 1010 | –
COC1C(O)[C@@H](CSP(=O)([O-])OP(=O)(O)OP(=O)(O)OC[C@H]2O[C@@H](n3cnc4c(=O)[nH]c(N)nc43)C(O)C2O)O[C@H]1n1c[n+](C)c2c(O)nc(N)nc21 (stereo partly drawn) [compound 26] | resistant/inhibitor | stability in the presence of DcpS enzyme | 12600 ± 5220 | –
C[n+]1cn([C@@H]2O[C@H](CSP(=O)(O)OP(=O)([S-])OP(=O)(O)SC[C@H]3O[C@@H](n4cnc5c(=O)[nH]c(N)nc54)C(O)C3O)C(O)C2O)c2nc(N)nc(O)c21 (single isomer, unassigned) [compound 33] | resistant/inhibitor | stability in the presence of DcpS enzyme | 260 ± 40 | –
C[n+]1cn([C@@H]2O[C@H](CSP(=O)(O)OP(=O)([S-])OP(=O)(O)OC[C@H]3O[C@@H](n4cnc5c(=O)[nH]c(N)nc54)C(O)C3O)C(O)C2O)c2nc(N)nc(O)c21 (stereo partly drawn) [compound 30] | resistant/inhibitor | stability in the presence of DcpS enzyme | 230 ± 40 | –
C[n+]1cn([C@@H]2O[C@H](COP(=O)(O)OP(=O)([S-])OP(=O)(O)SC[C@H]3O[C@@H](n4cnc5c(=O)[nH]c(N)nc54)C(O)C3O)C(O)C2O)c2nc(N)nc(O)c21 (stereo partly drawn) [compound 36] | hydrolyzable | hydrolyzed | – | –
C[n+]1cn([C@@H]2O[C@H](CSP(=O)([O-])OP(=O)(O)CP(=O)(O)OC[C@H]3O[C@@H](n4cnc5c(=O)[nH]c(N)nc54)C(O)C3O)C(O)C2O)c2nc(N)nc(O)c21 (stereo partly drawn) [compound 25] | resistant/inhibitor | stability in the presence of DcpS enzyme | 6250 ± 1220 | –
Nc1nc2c(ncn2[C@@H]2O[C@H](COP(=O)(O)OP(=O)(O)OP(=O)(O)SC[C@H]3O[C@@H](n4cnc5c(=O)[nH]c(N)nc54)[C@H](O)[C@@H]3O)[C@@H](O)[C@H]2O)c(=O)[nH]1 [compound 20] | hydrolyzable | – | > 100000 | –
C[n+]1cn([C@@H]2O[C@H](COP(=O)(O)OP(=O)(O)O)[C@@H](O)[C@H]2O)c2nc(N)nc([O-])c21 [compound 00] | resistant/inhibitor | – | 4300 ± 780 | –
C[n+]1cn([C@@H]2O[C@H](CSP(=O)(O)OP(=O)([S-])OP(=O)(O)SC[C@H]3O[C@@H](n4cnc5c(=O)[nH]c(N)nc54)C(O)C3O)C(O)C2O)c2nc(N)nc(O)c21 (single isomer, unassigned) [compound 34] | resistant/inhibitor | stability in the presence of DcpS enzyme | 51 ± 8 | best inhibitory properties
C[n+]1cn([C@@H]2O[C@H](CSP(=O)([O-])OP(=O)(O)O)C(O)[C@@H]2O)c2nc(N)nc(O)c21 (stereo partly drawn) [compound 12] | resistant/inhibitor | stability in the presence of DcpS enzyme | 1930 ± 380 | –
C[n+]1cn([C@@H]2O[C@H](COP(=O)(O)OP(=O)([S-])OP(=O)(O)SC[C@H]3O[C@@H](n4cnc5c(=O)[nH]c(N)nc54)C(O)C3O)C(O)C2O)c2nc(N)nc(O)c21 (stereo partly drawn) [compound 35] | hydrolyzable | hydrolyzed | – | –
